Assay results published in PubChem BioAssay (NCI).
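Growth conditions: 96-well plates. Treatment: test compound, 48 hours, 5 concentrations. Analysis: linear interpolation between bracketing concentrations; unreached endpoints set to highest concentration. At the GI50, growth is halved. The concentration for full growth arrest is given as TGI.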

Key:
Test in all cases: NCI anticancer screen, dose series, 48 h
OVCAR-8 ovarian = test system: OVCAR-8 ovarian
KM12 colon = test system: KM12 colon
NCI-H460 lung = test system: NCI-H460 lung
A549 NSCLC = test system: A549 NSCLC
CAKI-1 renal = test system: CAKI-1 renal
UACC-62 melanoma = test system: UACC-62 melanoma
HCT-116 colon = test system: HCT-116 colon
ACHN renal = test system: ACHN renal
SF-539 CNS = test system: SF-539 CNS
T-47D breast = test system: T-47D breast

| SMILES | GI50 (OVCAR-8 ovarian) [µM] | TGI (OVCAR-8 ovarian) [µM] | GI50 (KM12 colon) [µM] | TGI (KM12 colon) [µM] | GI50 (NCI-H460 lung) [µM] | TGI (NCI-H460 lung) [µM] | GI50 (A549 NSCLC) [µM] | TGI (A549 NSCLC) [µM] | GI50 (CAKI-1 renal) [µM] | TGI (CAKI-1 renal) [µM] | GI50 (UACC-62 melanoma) [µM] | TGI (UACC-62 melanoma) [µM] | GI50 (HCT-116 colon) [µM] | TGI (HCT-116 colon) [µM] | GI50 (ACHN renal) [µM] | TGI (ACHN renal) [µM] | GI50 (SF-539 CNS) [µM] | TGI (SF-539 CNS) [µM] | TGI (T-47D breast) [µM] |
| --- | --- | --- | --- | --- | --- | --- | --- | --- | --- | --- | --- | --- | --- | --- | --- | --- | --- | --- | --- |
| COc1cc(C2C3=C(COC3=O)Nc3c2ccc2c3CCCC2)cc2c1OCO2 (centres undefined) | 0.045 | 20.2 | 0.0356 | 0.412 | 0.0353 | 15.7 | 0.0444 | > 89.3 | 0.0775 | > 100 | 0.0462 | > 100 | 0.039 | 3.29 | 0.134 | > 100 | 0.0331 | 13.4 |  |
| CC1C[C@]2(C[C@@H](C)C(=O)O2)O[C@@H]2CC3(C)[C@@H]4CCC5C(C)(C)OC(=O)C[C@H]6OO[C@]4(CC[C@]3(C)C12)CC56O (some centres undefined) |  | > 100 |  |  |  | > 100 |  | > 100 |  |  |  | > 100 |  |  |  | > 100 |  | > 100 |  |
| CCCCN[C@H]1C2C3CC4C5CC(C42)C1(C)C53 (some centres undefined) |  |  |  | > 100 |  | > 100 |  | > 100 |  | > 100 |  | > 100 |  | > 100 |  | > 100 |  | > 100 |  |
| CC(C)CC(Nc1c(O)ccc2ccccc12)C(=O)O (centres undefined) |  |  |  | > 100 |  | > 100 |  | > 100 |  | 47.4 |  | 72.3 |  | > 100 |  | 76 |  | 47.6 | > 100 |
| COc1ccc(-c2cc(-c3cc(Cl)cc(Br)c3O)[nH]c(=O)n2)cc1 |  | 37.2 |  | 41.3 |  | 34.6 |  | 33.7 |  | 37.2 |  | 29.4 |  | 24.5 |  | 27.7 |  | 28.8 |  |
| COC(=O)N/N=C(/CCC(=O)Nc1ccc(C)c(C)c1)CC(=O)C(C)(C)C |  | > 100 |  | > 100 |  | > 100 |  | > 100 |  | > 100 |  | > 100 |  |  |  | > 100 |  | > 100 |  |
| CCOC(=O)C1=C(C)N(NC(N)=O)C(C)(O)C12CCOC2=O (centres undefined) |  | > 100 |  | > 100 |  | > 100 |  | > 100 |  | > 100 |  | > 100 |  | > 100 |  | > 100 |  | > 100 |  |
| CCCCCCCCCCCCCCCC(=O)OCC1OC(OC)C2NP(=O)(N(CCCl)CCCl)OC1C2O (centres undefined) |  | 13.5 |  | 41.9 |  | 14.5 |  | 39.9 |  | 10.5 |  | 8.71 |  | 11.5 |  | 40.6 |  | 7.29 |  |
| OCCNCCCOc1ccc2ncnc(Nc3ccc(Oc4cccc(C(F)(F)F)c4)c(Cl)c3)c2c1 | 2.24 | 5.83 | 1.77 | 3.26 | 1.73 | 3.31 |  |  | 2.99 | 11.6 | 1.79 | 3.31 |  |  | 1.09 | 2.28 | 1.64 | 3.07 |  |
| CCOC(=N)CC(=O)Nc1cccc(Cl)c1 |  | > 100 |  | > 100 |  | > 100 |  | > 100 |  | > 100 |  | > 100 |  | > 100 |  | > 100 |  | > 100 |  |
